Assay results as given in patent US8637461B2, “Method of diagnosing and treating oxidative stress-impaired wound healing” (Kuwait University, priority 2011, dated 2014).

Legend:
IRS-1 = IRS-1 Tyr612 phosphorylation, immunoprecipitation/western blotting in dermal fibroblasts; format: cell-based, rat
Procedure: (§1) Primary dermal fibroblasts were obtained from dorsal skin of female Goto Kakizaki (GK, age 12-15 months) rats, a model for non-obese type 2 diabetes, and their Wistar control counterparts. After sterilization in povidine solution, rat skin was washed in sterile water and rinsed in 70% ethanol in PBS. Epidermis and dermis were separated following overnight incubation in 0.25% trypsine/EDTA at 4 C. Dermis was cut into small pieces and incubated in Dulbecco's modified Eagle medium (DMEM; Invitrogen) containing collagenase (250 U/ml; Sigma) for thirty min at 37 C in 5% CO2 with constant agitation. The sections were triturated vigorously to release fibroblasts, which were collected by centrifugation. The cell pellet was washed two times with PBS, re-suspended in complete medium (DMEM supplemented with 10% fetal calf serum, penicillin (100 U/ml), streptomycin (100 μg/ml)), 2 mM L-glutamine and 10 mM HEPES) and then cultured under a standard condition.
(§2) A hypercortisolemic state was mimicked by exposing control fibroblasts to dexamethasone (Dexa, Sigma) administered at 20 ng/ml every other day for a duration of 8 days. Similarly, the state of low-grade inflammation in fibroblasts was recapitulated experimentally by exposing these cells to TNF-α (4 ng/ml every day for 4 days). […] The concentration of IGF-1 (50 ng/ml, Peprotech) was determined by prior dose response experiment.
Levels/activities of key intracellular molecules in the IGF-1 signaling cascade including IRS-1, IRS-1 Tyr-p-612, PI3K-p85α, IRS-1 Ser-p (307), PI3K, Akt, p-Akt, INK and p-JNK were assessed using western blotting/immunoprecipitation and commercially available ELISA-based assays.
Ice-cold radioimmunoprecipitation assay (RIPA) buffer was used for the extraction of proteins from fibroblasts. Immunoprecipitation was achieved by incubating cell homogenates with anti-IRS-1 antibody overnight at 4° C. followed by the addition of protein A/G-Agarose for additional two hours. Immunoprecipitates were separated using spin-collection filters (Cytosignal), washed once with RIPA buffer/3× with PBS and then elutated by the addition of Laemmli buffer. […] Antigen-antibody complexes were visualized by an enhanced chemiluminescence system on BioMax Light Film (Kodack) and then the densitometry was analyzed using Quantity One 1-D image software (BioRad, GS 800). All densitometry data were corrected for equal loading using the house keeping gene β-actin and they were expressed as fold change vs. control.

Akt = Akt phosphorylation, FACE cell-based ELISA in fixed fibroblasts; design: species or system rat; conditions: diabetic, TNF-α- or dexamethasone-exposed cells, EUK-134
Procedure: as §1, with “The cell pellet was washed two times with PBS, re-suspended in complete medium (DMEM supplemented with 10% fetal calf serum, penicillin (100 U/ml), streptomycin (100 μg/ml)), 2 mM L-glutamine and 10 mM HEPES) and then cultured under a standard condition.” left out
(§3) A hypercortisolemic state was mimicked by exposing control fibroblasts to dexamethasone (Dexa, Sigma) administered at 20 ng/ml every other day for a duration of 8 days. […] The concentration of IGF-1 (50 ng/ml, Peprotech) was determined by prior dose response experiment.
(§4) Activation of Akt and JNK was analyzed in fixed fibroblasts using FACE-Akt and FACE-JNK (both from Active Motife). […] Labeling with antibodies was conducted according to the manufacturer's protocol and the resulting phosphoantibody signal was calculated after correction for number of cells and total Akt or JNK levels in each sample. […]

[1] = tested on: Jun N-terminal kinase (JNK); experiment: JNK phosphorylation, FACE-JNK ELISA in fibroblasts; format: cell-based, rat; conditions: diabetic, TNF-α- or dexamethasone-exposed cells; EUK-134
Procedure: as §1, with “The cell pellet was washed two times with PBS, re-suspended in complete medium (DMEM supplemented with 10% fetal calf serum, penicillin (100 U/ml), streptomycin (100 μg/ml)), 2 mM L-glutamine and 10 mM HEPES) and then cultured under a standard condition.” left out
as §3, §4

dermal fibroblasts [2] = experiment: BrdU cell proliferation assay in fibroblasts; format: cell-based, rat; conditions: fibroblasts with diabetic, inflammatory or hypercortisolemia phenotypes; ROS suppressors
Procedure: as §1, §2
The proliferation and collagen synthesis of cultured fibroblasts were determined using, respectively the 5-bromo-2-deoxyuridine (BrdU) incorporation into DNA and a radiolabelled proline uptake assay.
Cells were seeded into 96-microtiter plates at a concentration of 1.5×10^4 and allowed to adhere overnight in DMEM supplemented with 10% FCS. After arrest by incubation in DMEM supplemented with 0.5% FCS for 24 hrs, cells were exposed to IGF-I (50 ng/ml) in DMEM containing […] 5-bromo-2-deoxyuridine (BrdUrd). Incorporation of BrdUrd into DNA was estimated using 5-bromo-2-deoxyuridine labeling and detection kit (Roche Applied Science) according to the manufacturer's instructions.

dermal fibroblasts [3] = experiment: Collagen gel contraction assay with fibroblasts; format: cell-based, rat; conditions: diabetic, TNF-α- or dexamethasone-exposed cells; EUK-134
Procedure: as §1, §3
The ability of fibroblasts to migrate in response to IGF-I in each of our models of oxidative stress-induced IGF-1 resistance was also evaluated. […]

[4] = Rapid insulin sensitivity test (RIST) with IGF-1 instead of insulin; format: in vivo, rat; conditions: diabetic/hypercortisolemic rats, chronic administration of antioxidant
Procedure: All animal procedures were performed in accordance with the NIH Guidance for the Care and Use of Laboratory Animals. The current study used, respectively the GK and Dexamethasone-treated rats as models for diabetes and hypercortisolemia. Dexamethasone was administered subcutaneously at a dose of 2.5 μg/kg body weight in the morning (8:00 AM) and in the evening (8:00 PM) for a duration of four weeks before wounding and this form of therapy continued during the course of healing. […] Weight and age-matched female Wistar rats (Kuwait University breeding colony) served as the corresponding controls. All of the animals were maintained under standard conditions with 12 hours on/off light cycle, commercial diet, and water ad libitum. GK rats destined for wounding were initially matched with regard to body weight (e.g., 230 to 250 g), and plasma levels of glucose, free fatty acids and insulin. These indices are commonly used to reflect the severity of the diabetic state.
Animals used for IGF-1 sensitivity (n=6/group) and wound healing (n=8) studies were partitioned into five study groups including control, diabetic, hypercortisolemic, diabetic+EUK and hypercortisolemic+EUK. The EUK-134 was administered for duration of four weeks before wound induction and it continued during the course of healing.
IGF-1 sensitivity in control, diabetic and hypercortisolemic animals was determined using the rapid insulin sensitivity test (RIST) with IGF-1 (200 μg/kg BW) infused instead of insulin. The RIST index is the amount of glucose per kg body weight required to maintain euglycemia following a bolus of insulin (50 mU/kg BW).

COc1cccc(C=NCCN=Cc2cccc(OC)c2[O-])c1[O-].[Cl-].[Mn+3] [EUK-134]
inhibition of IGF-1-induced IRS-1 Tyr612 phosphorylation (IRS-1; diabetic fibroblasts or normal fibroblasts exposed to TNF-α or dexamethasone, EUK-134): ameliorates the inhibition of IRS-1 phosphorylation
common defect in IGF-1 signaling (IRS-1; fibroblasts with diabetic, inflammatory or hypercortisolemia phenotypes, ROS suppressors): correct the common defect in IGF-1 signaling
Akt phosphorylation in response to IGF-1 (Akt): partially restored
basal JNK activity (phosphorylation) [1]: returns its phosphorylation state to approximate levels found in normal fibroblasts
impairment in key fibroblast functions (collagen synthesis, cell proliferation, migration, contraction) (dermal fibroblasts [2]): ameliorates
contractility in collagen gel assay (dermal fibroblasts [3]): partially restores this contractility to control levels
improvement of glucose metabolism in response to bolus injection of IGF-1 [4]: about 20%
